Like-named read-outs stand apart in the source and are kept apart here.
Columns and labels:
[1] = system: Mycosphaerella graminicola; Anamorph: Septoria tritici; experiment: Leaf Blotch of Wheat (SEPTTR) disease control; assay type: in vivo; conditions: Zymoseptoria tritici
Procedure: (§1) Technical grades of materials were dissolved in acetone, which were then mixed with nine volumes of water containing 110 ppm Triton X-100. The fungicide solutions were applied onto wheat seedlings using an automated booth sprayer to run-off. All sprayed plants were allowed to air dry prior to further handling. All fungicides were evaluated using the aforementioned method for their activity vs. all target diseases. Wheat leaf blotch and brown rust activity were also evaluated using track spray applications, in which case the fungicides were formulated as EC formulations, containing 0.1% Trycol 5941 in the spray solutions. Wheat plants (variety Yuma) were grown from seed in a greenhouse in 50% mineral soil/50% soil-less Metro mix until the first leaf was fully emerged, with 7-10 seedlings per pot. These plants were inoculated with an aqueous spore suspension of Septoria tritici either prior to or after fungicide treatments. After inoculation the plants were kept in 100% relative humidity (one day in a dark dew chamber followed by two to three days in a lighted dew chamber at 20° C.) to permit spores to germinate and infect the leaf. The plants were then transferred to a greenhouse set at 20° C. for disease to develop. When disease symptoms were fully expressed on the 1st leaves of untreated plants, infection levels were assessed on a scale of 0 to 100 percent disease severity. Percent disease control was calculated using the ratio of disease severity on treated plants relative to untreated plants.

[2] = system: Puccinia triticina; Synonym: Puccinia recondite f. Sp. Tritici; experiment: Wheat Brown Rust (PUCCRT) disease control; assay type: in vivo; conditions: Puccinia triticina, topical
Procedure: as §1, with “plants. Wheat plants (variety Yuma) were grown from seed in a greenhouse in 50% mineral soil/50% soil-less Metro mix until the first leaf was fully emerged, with 7-10 seedlings per pot. These plants were inoculated with an aqueous spore suspension of Puccinia triticina either prior to or after fungicide treatments. After inoculation the plants were kept in a dark dew room at 22° C. with 100% relative humidity overnight to permit spores to germinate and infect the leaf. The plants were then transferred to a greenhouse set at 24° C. for disease to develop. Fungicide formulation, application and disease assessment followed the procedures as described in the Example A.” for “plants.”

[3] = 24 h, 1 Day Protectant, rate 100 ppm, read-out: SEPTTR 1 DP disease control
[4] = 72 h, 3 Day Curative, rate 100 ppm, read-out: SEPTTR 3 DC disease control
[5] = 24 h, 1 Day Protectant, rate 100 ppm, read-out: PUCCRT 1 DP disease control
[6] = 72 h, 3 Day Curative, rate 100 ppm, read-out: PUCCRT 3 DC disease control
[7] = 24 h, 1 Day Protectant, rate 121.5 g/H, read-out: SEPTTR 1 DP disease control
[8] = 72 h, 3 Day Curative, rate 121.5 g/H, read-out: SEPTTR 3 DC disease control
[9] = 24 h, 1 Day Protectant, rate 121.5 g/H, read-out: PUCCRT 1 DP disease control
[10] = 72 h, 3 Day Curative, rate 121.5 g/H, read-out: PUCCRT 3 DC disease control
[11] = 24 h, Wheat Brown Rust, 1 Day Protectant, rate 100 ppm (high volume application), read-out: Disease control PUCCRT 1 DP
[12] = 24 h, Wheat Brown Rust, 1 Day Protectant, rate 121.5 g/H (low volume application), read-out: Disease control PUCCRT 1 DP
[13] = 72 h, Wheat Brown Rust, 3 Day Curative, rate 121.5 g/H (low volume application), read-out: Disease control PUCCRT 3 DC

CCCO[C@@H]1[C@@H](Cc2ccccc2)CCC[C@H](NC(=O)c2nccc(OC)c2O)C(=O)O[C@H]1C [Compound F21]
pest or weed control at 100 ppm [1, 3]: 0 to 80%
pest or weed control at 100 ppm [1, 4]: 0 to 80%
pest or weed control at 100 ppm [2, 5]: 80 to 100%
pest or weed control at 100 ppm [2, 6]: 80 to 100%

CCCO[C@@H]1[C@@H](CCC(C)C)CCC[C@H](NC(=O)c2nccc(OC)c2O)C(=O)O[C@H]1C [Compound F4]
pest or weed control at 100 ppm [1, 3]: 80 to 100%
pest or weed control at 100 ppm [1, 4]: 80 to 100%
pest or weed control at 100 ppm [2, 5]: 80 to 100%
pest or weed control at 100 ppm [2, 6]: 80 to 100%

COc1ccnc(C(=O)N[C@H]2CCC[C@H](CC3CCCC3)[C@@H](OCC(C)C)[C@H](C)OC2=O)c1OCOC(C)=O [Compound F123]
pest or weed control at 100 ppm [1, 3]: 80 to 100%
pest or weed control at 121.5 g/ha [1, 7]: 80 to 100%
pest or weed control at 100 ppm [1, 4]: 80 to 100%
pest or weed control at 121.5 g/ha [1, 8]: 80 to 100%
pest or weed control at 100 ppm [2, 5]: 80 to 100%
pest or weed control at 121.5 g/ha [2, 9]: 80 to 100%
pest or weed control at 100 ppm [2, 6]: 80 to 100%
pest or weed control at 121.5 g/ha [2, 10]: 0 to 80%

COc1ccnc(C(=O)N[C@H]2CCC[C@H](CC3CCCC3)[C@@H](Oc3ccccc3)[C@H](C)OC2=O)c1OC(C)=O [Compound F71]
pest or weed control at 100 ppm [1, 3]: 80 to 100%
pest or weed control at 121.5 g/ha [1, 7]: 80 to 100%
pest or weed control at 100 ppm [1, 4]: 80 to 100%
pest or weed control at 121.5 g/ha [1, 8]: 80 to 100%
pest or weed control at 100 ppm [2, 5]: 80 to 100%
pest or weed control at 121.5 g/ha [2, 9]: 80 to 100%
pest or weed control at 100 ppm [2, 6]: 80 to 100%
pest or weed control at 121.5 g/ha [2, 10]: 0 to 80%

COc1ccnc(C(=O)N[C@H]2CCC[C@H](Cc3ccccc3)[C@@H](OC3CCCC3)[C@H](C)OC2=O)c1O [Compound F22]
pest or weed control at 100 ppm [1, 3]: 80 to 100%
pest or weed control at 100 ppm [1, 4]: 80 to 100%
pest or weed control at 100 ppm [2, 5]: 80 to 100%
pest or weed control at 100 ppm [2, 6]: 80 to 100%

COc1ccnc(C(=O)N[C@H]2CCC[C@H](CC3CCCC3)[C@@H](OCC(C)C)[C@H](C)OC2=O)c1O [Compound F37]
pest or weed control at 100 ppm [1, 3]: 80 to 100%
pest or weed control at 100 ppm [2, 5]: 0 to 80%
pest or weed control at 100 ppm [2, 6]: 0 to 80%

COc1ccnc(C(=O)N[C@H]2CCC[C@H](CCC(C)C)[C@@H](OC)[C@H](C)OC2=O)c1OCOC(C)=O [Compound F95]
pest or weed control at 100 ppm [1, 3]: 80 to 100%
pest or weed control at 121.5 g/ha [1, 7]: 80 to 100%
pest or weed control at 100 ppm [1, 4]: 80 to 100%
pest or weed control at 121.5 g/ha [1, 8]: 0 to 80%
pest or weed control at 100 ppm [2, 5]: 80 to 100%
pest or weed control at 121.5 g/ha [2, 9]: 80 to 100%
pest or weed control at 100 ppm [2, 6]: 80 to 100%
pest or weed control at 121.5 g/ha [2, 10]: 0 to 80%

COc1ccnc(C(=O)N[C@H]2CCC[C@H](C)[C@@H](OCc3ccccc3)[C@H](C)OC2=O)c1OCOC(C)=O [Compound F125]
pest or weed control at 100 ppm [1, 3]: 80 to 100%
pest or weed control at 121.5 g/ha [1, 7]: 80 to 100%
pest or weed control at 100 ppm [1, 4]: 80 to 100%
pest or weed control at 121.5 g/ha [1, 8]: 80 to 100%
pest or weed control at 100 ppm [2, 5]: 80 to 100%
pest or weed control at 121.5 g/ha [2, 9]: 80 to 100%
pest or weed control at 100 ppm [2, 6]: 80 to 100%
pest or weed control at 121.5 g/ha [2, 10]: 80 to 100%

COc1ccnc(C(=O)N[C@H]2CCC[C@H](Cc3ccc(F)cc3)[C@@H](OC(=O)C(C)C)[C@H](C)OC2=O)c1O [Compound F17]
pest or weed control at 100 ppm [1, 3]: 80 to 100%
pest or weed control at 100 ppm [1, 4]: 80 to 100%
pest or weed control at 100 ppm [2, 5]: 80 to 100%
pest or weed control at 100 ppm [2, 6]: 0 to 80%

COc1ccnc(C(=O)N[C@H]2CCC[C@H](Cc3ccc(F)cc3F)[C@@H](OCc3ccccc3)[C@H](C)OC2=O)c1OCOC(C)=O [Compound F137]
pest or weed control at 100 ppm [1, 3]: 80 to 100%
pest or weed control at 121.5 g/ha [1, 7]: 80 to 100%
pest or weed control at 100 ppm [1, 4]: 80 to 100%
pest or weed control at 121.5 g/ha [1, 8]: 80 to 100%
pest or weed control at 100 ppm [2, 5]: 80 to 100%
pest or weed control at 121.5 g/ha [2, 9]: 80 to 100%
pest or weed control at 100 ppm [2, 6]: 80 to 100%
pest or weed control at 121.5 g/ha [2, 10]: 0 to 80%

CC[C@H]1CCC[C@H](NC(=O)c2nccc(OC)c2O)C(=O)O[C@@H](C)[C@@H]1Oc1ccccc1 [Compound F51]
pest or weed control at 100 ppm [1, 3]: 80 to 100%
pest or weed control at 100 ppm [1, 4]: 0 to 80%
pest or weed control at 100 ppm [2, 5]: 80 to 100%
pest or weed control at 100 ppm [2, 6]: 0 to 80%

CCOCC(=O)OCOc1c(OC)ccnc1C(=O)N[C@H]1CCC[C@H](CCOc2ccccc2)[C@@H](Oc2ccccc2)[C@H](C)OC1=O [Compound F182]
pest or weed control at 100 ppm [1, 3]: 80 to 100%
pest or weed control at 121.5 g/ha [1, 7]: 80 to 100%
pest or weed control at 100 ppm [1, 4]: 80 to 100%
pest or weed control at 121.5 g/ha [1, 8]: 80 to 100%
pest or weed control at 100 ppm [2, 5]: 80 to 100%
pest or weed control at 121.5 g/ha [2, 9]: 80 to 100%
pest or weed control at 100 ppm [2, 6]: 80 to 100%
pest or weed control at 121.5 g/ha [2, 10]: 0 to 80%

CCOCC(=O)OCOc1c(OC)ccnc1C(=O)N[C@H]1CCC[C@H](Cc2ccc(C)cc2)[C@@H](OCCCC(F)(F)F)[C@H](C)OC1=O [Compound F190, ((4-methoxy-2-(((3S,7R,8R,9S)-9-methyl-7-(4-methylbenzyl)-2-oxo-8-(4,4,4-trifluorobutoxyl)oxonan-3-yl)carbamoyl)pyridin-3-yl)oxy)methyl 2-ethoxyacetate]
pest or weed control at 100 ppm ([1]; 24 h, Wheat Leaf Blotch, 1 Day Protectant, rate 100 ppm (high volume application), read-out: Disease control SEPTTR 1 DP): 80 to 100%
pest or weed control at 121.5 g/ha ([1]; 24 h, Wheat Leaf Blotch, 1 Day Protectant, rate 121.5 g/H (low volume application), read-out: Disease control SEPTTR 1 DP): 80 to 100%
pest or weed control at 100 ppm ([1]; 72 h, Wheat Leaf Blotch, 3 Day Curative, rate 100 ppm (high volume application), read-out: Disease control SEPTTR 3 DC): 80 to 100%
pest or weed control at 121.5 g/ha ([1]; 72 h, Wheat Leaf Blotch, 3 Day Curative, rate 121.5 g/H (low volume application), read-out: Disease control SEPTTR 3 DC): 80 to 100%
pest or weed control at 100 ppm [2, 11]: 80 to 100%
pest or weed control at 121.5 g/ha [2, 12]: 80 to 100%
pest or weed control at 121.5 g/ha [2, 13]: 0 to 80%

COc1ccnc(C(=O)N[C@H]2CCC[C@H](Cc3ccccc3)[C@@H](Oc3ccccc3)[C@H](C)OC2=O)c1O [Compound F20]
pest or weed control at 100 ppm [1, 3]: 80 to 100%
pest or weed control at 100 ppm [1, 4]: 80 to 100%
pest or weed control at 100 ppm [2, 5]: 80 to 100%
pest or weed control at 100 ppm [2, 6]: 0 to 80%

COc1ccnc(C(=O)N[C@H]2CCC[C@H](Cc3ccc(F)cc3)[C@@H](OCC(F)F)[C@H](C)OC2=O)c1O [Compound F15]
pest or weed control at 100 ppm [1, 3]: 80 to 100%
pest or weed control at 100 ppm [1, 4]: 80 to 100%
pest or weed control at 100 ppm [2, 5]: 80 to 100%
pest or weed control at 100 ppm [2, 6]: 80 to 100%

COc1ccnc(C(=O)N[C@H]2CCC[C@H](CCOCC3CC3)[C@@H](OCC3CC3)[C@H](C)OC2=O)c1O [Compound F54]
pest or weed control at 100 ppm [1, 3]: 0 to 80%
pest or weed control at 100 ppm [1, 4]: 80 to 100%
pest or weed control at 100 ppm [2, 5]: 80 to 100%
pest or weed control at 100 ppm [2, 6]: 80 to 100%

COc1ccnc(C(=O)N[C@H]2CCC[C@@H]3CCO[C@H]3[C@H](C)OC2=O)c1OC(C)=O [Compound F85]
pest or weed control at 121.5 g/ha [1, 7]: 0 to 80%
pest or weed control at 121.5 g/ha [2, 9]: 80 to 100%
pest or weed control at 121.5 g/ha [2, 10]: 80 to 100%

CCOCC(=O)OCOc1c(OC)ccnc1C(=O)N[C@H]1CCC[C@@H]2CCO[C@H]2[C@H](C)OC1=O [Compound F192]
pest or weed control at 100 ppm [2, 11]: 80 to 100%
pest or weed control at 121.5 g/ha [2, 12]: 80 to 100%
pest or weed control at 100 ppm ([2]; 72 h, Wheat Brown Rust, 3 Day Curative, rate 100 ppm (high volume application), read-out: Disease control PUCCRT 3 DC): 80 to 100%
pest or weed control at 121.5 g/ha [2, 13]: 80 to 100%

COc1ccnc(C(=O)N[C@H]2CCC[C@@H]3CCO[C@H]3[C@H](C)OC2=O)c1O [Compound F58]
pest or weed control at 100 ppm [2, 5]: 80 to 100%
pest or weed control at 100 ppm [2, 6]: 80 to 100%
